The source of these data is the supplement of paper PMC12137928.

Structures can show the parent of a compound that is named as a salt.

The test system of the assay is HCT116. Particulars: 72 h. In outline: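 Luminescence was read with CellTiter-Glo in HCT116 cells seeded at 250 per well in 1536-well plates. Signals were scaled between vehicle at 0% and positive control at -100%, then pattern-corrected. IC50 and maximal efficacy were obtained by fitting a four-parameter Hill equation.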

Turning to `CC(=O)O[C@]1(C(C)=O)CC[C@H]2[C@@H]3C=C(Cl)C4=CC(=O)[C@@H]5C[C@@H]5[C@]4(C)[C@H]3CC[C@@]21C` [Cyproterone acetate], the IC50 cell viability reads like this: (ICRF193 0 nM) above 45.8 µM; (ICRF193 200 nM) above 45.8 µM.

For `NCCS` [Cysteamine hydrochloride], the IC50 cell viability (ICRF193 0 nM) was above 45.8 µM and the IC50 cell viability (ICRF193 200 nM) is above 45.8 µM.

For the compound `COP(=S)(OC)Oc1ccc(S(N)(=O)=O)cc1` [Cythioate], the IC50 cell viability runs as follows: (ICRF193 0 nM) above 45.8 µM; (ICRF193 200 nM) above 45.8 µM.

With `O=C(O)C(O)C(O)C(=O)O` (stereo not drawn) [D(-)-Tartaric acid], the IC50 cell viability runs as follows: (ICRF193 0 nM) above 45.8 µM; (ICRF193 200 nM) above 45.8 µM.

As to `OC[C@H]1O[C@H](O[C@H]2[C@H](O)[C@@H](O)C(O)O[C@@H]2CO)[C@H](O)[C@@H](O)[C@@H]1O` (stereo partly drawn) [D-(+)-MALTOSE], the IC50 cell viability was above 45.8 µM (ICRF193 0 nM) and above 45.8 µM (ICRF193 200 nM).

Turning to `O=C(O)[C@H](O)c1ccccc1` [D-(-)-Mandelic acid], the IC50 cell viability runs as follows: (ICRF193 0 nM) above 45.8 µM; (ICRF193 200 nM) above 45.8 µM.

In the case of `C[C@@H](N)C(=O)O` [D-Alanine], the IC50 cell viability is, setting by setting: (ICRF193 0 nM) above 45.8 µM; (ICRF193 200 nM) above 45.8 µM.

In turn, `N[C@H](CC(=O)O)C(=O)O` [D-Aspartic acid] showed an IC50 cell viability (ICRF193 0 nM) above 45.8 µM and an IC50 cell viability (ICRF193 200 nM) above 45.8 µM.

For the compound `CC12CCC(CC1=O)C2(C)C` [D-Camphor], the IC50 cell viability is above 45.8 µM (ICRF193 0 nM) and above 45.8 µM (ICRF193 200 nM).

As to `N[C@@H]1CONC1=O` [D-Cycloserine], the IC50 cell viability is, setting by setting: (ICRF193 0 nM) above 45.8 µM; (ICRF193 200 nM) above 45.8 µM.

Consider `OC[C@@H](O)[C@H](O)[C@H](O)[C@@H](O)CO` [D-Galactitol], for which the IC50 cell viability (ICRF193 0 nM) is above 45.8 µM and the IC50 cell viability (ICRF193 200 nM) is above 45.8 µM.

As to `O=C1O[C@@H]2[C@@H](O)[C@H](O)O[C@@H]2C1O` (stereo partly drawn) [D-Glucuronolactone], the IC50 cell viability is above 45.8 µM (ICRF193 0 nM) and above 45.8 µM (ICRF193 200 nM).

On to `N[C@H](CCC(=O)O)C(=O)O` [D-Glutamic acid], for which the IC50 cell viability (ICRF193 0 nM) was above 45.8 µM and the IC50 cell viability (ICRF193 200 nM) is above 45.8 µM.

Compound `NC(=O)CC[C@@H](N)C(=O)O` [D-Glutamine] returned an IC50 cell viability (ICRF193 0 nM) above 45.8 µM and an IC50 cell viability (ICRF193 200 nM) above 45.8 µM.

Take `N[C@H](Cc1c[nH]cn1)C(=O)O` [D-HISTIDINE]: the IC50 cell viability was above 45.8 µM (ICRF193 0 nM) and above 45.8 µM (ICRF193 200 nM).

On to `CC(C)C[C@@H](N)C(=O)O` [D-Leucine], for which the IC50 cell viability was above 45.8 µM (ICRF193 0 nM) and above 45.8 µM (ICRF193 200 nM).

For `CN1CCC[C@@H]1c1cccnc1` [D-Nicotine], the IC50 cell viability runs as follows: (ICRF193 0 nM) above 45.8 µM; (ICRF193 200 nM) above 45.8 µM.

Turning to `CC(C)(CO)[C@@H](O)C(=O)NCCC(=O)NCCSSCCNC(=O)CCNC(=O)[C@H](O)C(C)(C)CO` [D-Pantethine], the IC50 cell viability is, setting by setting: (ICRF193 0 nM) above 45.8 µM; (ICRF193 200 nM) above 45.8 µM.

For the compound `N[C@H](Cc1ccccc1)C(=O)O` [D-Phenylalanine], the IC50 cell viability was above 45.8 µM (ICRF193 0 nM) and above 45.8 µM (ICRF193 200 nM).

`N[C@H](CO)C(=O)O` [D-SERINE] came in with an IC50 cell viability (ICRF193 0 nM) above 45.8 µM and an IC50 cell viability (ICRF193 200 nM) above 45.8 µM.

As for `Cc1c(C)c2c(c(C)c1OC(=O)CCC(=O)O)CC[C@@](C)(CCC[C@H](C)CCC[C@H](C)CCCC(C)C)O2` [D-alpha-Tocopherol succinate], the IC50 cell viability runs as follows: (ICRF193 0 nM) above 45.8 µM; (ICRF193 200 nM) above 45.8 µM.

For `Cc1cc(O)cc2c1O[C@](C)(CCC[C@H](C)CCC[C@H](C)CCCC(C)C)CC2` [D-delta-Tocopherol], the IC50 cell viability runs as follows: (ICRF193 0 nM) above 45.8 µM; (ICRF193 200 nM) above 45.8 µM.

In the case of `CCN(CC)C(=O)c1cccc(C)c1` [DEET], the IC50 cell viability was above 45.8 µM (ICRF193 0 nM) and above 45.8 µM (ICRF193 200 nM).

As to `CN(C)CC(c1ccc(O)cc1)C1(O)CCCCC1` (stereo not drawn) [DESVENLAFAXINE SUCCINATE], the IC50 cell viability reads like this: (ICRF193 0 nM) above 45.8 µM; (ICRF193 200 nM) above 45.8 µM.

As for `OC[C@H]1OC(O)[C@H](O)[C@@H](O)[C@@H]1O` (stereo partly drawn) [DEXTROSE], the IC50 cell viability is, setting by setting: (ICRF193 0 nM) above 45.8 µM; (ICRF193 200 nM) above 45.8 µM.

For the compound `NC[C@@H]1CC[C@@H](N)[C@@H](O[C@H]2[C@H](O)[C@@H](O[C@H]3O[C@H](CO)[C@@H](O)[C@H](N)[C@H]3O)[C@H](N)C[C@@H]2N)O1` [DIBEKACIN], the IC50 cell viability reads like this: (ICRF193 0 nM) above 45.8 µM; (ICRF193 200 nM) above 45.8 µM.

On to `CC(C)(C)c1ccc2c(S(=O)(=O)O)c(C(C)(C)C)ccc2c1` [DIBUNATE SODIUM], for which the IC50 cell viability (ICRF193 0 nM) was above 45.8 µM and the IC50 cell viability (ICRF193 200 nM) was above 45.8 µM.

The compound `CCN(CC)C(=O)N1CCN(C)CC1` [DIETHYLCARBAMAZINE CITRATE] gave an IC50 cell viability (ICRF193 0 nM) above 45.8 µM and an IC50 cell viability (ICRF193 200 nM) above 45.8 µM.

With `CN[C@@H]1[C@H](O[C@H]2[C@H](O[C@H]3[C@H](O)[C@@H](O)[C@H](NC(=N)N)[C@@H](O)[C@@H]3NC(=N)N)O[C@@H](C)[C@]2(O)CO)O[C@@H](CO)[C@H](O)[C@H]1O` [DIHYDROSTREPTOMYCIN [5mM]], the IC50 cell viability by setting is: (ICRF193 0 nM) above 45.8 µM; (ICRF193 200 nM) above 45.8 µM.

As to `CC/C=C\C/C=C\C/C=C\C/C=C\C/C=C\C/C=C\CCC(=O)O` [DOCONEXENT], the IC50 cell viability is above 45.8 µM (ICRF193 0 nM) and above 45.8 µM (ICRF193 200 nM).

Consider `Cc1cc(CC(C)C[Si](C)(O[Si](C)(C)C)O[Si](C)(C)C)c(O)c(-n2nc3ccccc3n2)c1` (stereo not drawn) [DROMETRIZOLE TRISILOXANE], for which the IC50 cell viability is above 45.8 µM (ICRF193 0 nM) and above 45.8 µM (ICRF193 200 nM).

`CN[C@H]1C(=O)N[C@@H]2Cc3ccc(cc3)Oc3cc4cc(c3O[C@@H]3O[C@H](C(=O)O)[C@@H](O)[C@H](O)[C@H]3NC(=O)CCCCCCCCC(C)C)Oc3ccc(cc3Cl)[C@@H](O)[C@@H]3NC(=O)[C@H](NC(=O)[C@@H]4NC(=O)[C@@H](NC2=O)c2cc(cc(O)c2Cl)Oc2cc1ccc2O)c1ccc(O)c(c1)-c1c(O[C@H]2O[C@H](CO)[C@@H](O)[C@H](O)[C@@H]2O)cc(O)cc1[C@@H](C(=O)NCCCN(C)C)NC3=O` [Dalbavancin]: the IC50 cell viability is above 45.8 µM (ICRF193 0 nM) and above 45.8 µM (ICRF193 200 nM).

In the case of `CCNC(=O)NCCCOc1cccc(CN2CCCCC2)c1` [Dalcotidine], the IC50 cell viability (ICRF193 0 nM) is above 45.8 µM and the IC50 cell viability (ICRF193 200 nM) is above 45.8 µM.

Regarding `CCN(CC)CCS(=O)(=O)[C@@H]1CCN2C(=O)c3coc(n3)CC(=O)C[C@H](O)/C=C(C)/C=C/CNC(=O)/C=C/[C@@H](C)[C@@H](C(C)C)OC(=O)[C@@H]12` [Dalfopristin], the IC50 cell viability by setting is: (ICRF193 0 nM) above 45.8 µM; (ICRF193 200 nM) above 45.8 µM.

Take `CN1C[C@@H]2C[C@H]1CN2c1cc2c(cc1F)c(=O)c(C(=O)O)cn2C1CC1` [Danofloxacin]: the IC50 cell viability was above 45.8 µM (ICRF193 0 nM) and above 45.8 µM (ICRF193 200 nM).

`O=C1c2cccc(O)c2C(=O)c2c(O)cccc21` [Danthron]: the IC50 cell viability (ICRF193 0 nM) was above 45.8 µM and the IC50 cell viability (ICRF193 200 nM) is above 45.8 µM.

Take `O=C1CN(/N=C/c2ccc(-c3ccc([N+](=O)[O-])cc3)o2)C(=O)N1` [Dantrolene sodium]: the IC50 cell viability reads like this: (ICRF193 0 nM) above 45.8 µM; (ICRF193 200 nM) above 45.8 µM.

Turning to `CCOc1ccc(Cc2cc([C@@H]3O[C@H](CO)[C@@H](O)[C@H](O)[C@H]3O)ccc2Cl)cc1` [Dapagliflozin], the IC50 cell viability (ICRF193 0 nM) is above 45.8 µM and the IC50 cell viability (ICRF193 200 nM) is above 45.8 µM.

Take `Cc1ccccc1N1CCN(CCc2nnc3n2CCCC3)CC1` [Dapiprazole hydrochloride]: the IC50 cell viability is above 45.8 µM (ICRF193 0 nM) and above 45.8 µM (ICRF193 200 nM).
